The test system of data set [1] is PHHs (donor HU8373) + THP-1 cells. In words: Immune-mediated toxicity, trovafloxacin ± LPS in PhysioMimix LC12, PHH + THP-1. The note with it: 48 h. The format is cell-based. How it is done: (§1) For evaluation of MDZ metabolism, cells were exposed on days 4–16 of culture to 5 µM MDZ (dissolved in methanol for the final concentration of 0.16% v/v). After drug addition, media were collected every 2, 6, and 24 h. After 24 h, the drug treatment media were replaced with fresh maintenance media. For the experiment with pesticide mixtures, we selected chemicals from the Agency for Toxic Substances and Disease Registry Substance Priority List, which contains compounds that are commonly detected at Superfund sites and are known to be hazardous to human health. A molar-equivalent mixture was created by combining all 20 pesticides and diluting them to a final concentration of 1 or 5 μM each in dimethyl sulfoxide (DMSO, final concentration 0.5% v/v). Media was collected 48 h after treatment for the analyses detailed below. For evaluation of immune-mediated toxicity with Trovafloxacin and LPS treatment, PHHs + THP-1 monocytes or PHHs + KCs were exposed on day 6 of culture to 25 or 100 µM of Trovafloxacin, with or without LPS. After 48 h, the drug treatment media were collected for biochemical assays detailed below.
(§2) Cell culture media was collected every time media was exchanged (Figure 1) and stored frozen at −80 °C until analyses for various biomarkers, including albumin, urea, lactate dehydrogenase (LDH), and human interleukin-6 (IL-6). The ELISA assays for albumin (E88-129, Bethyl Laboratories, Montgomery, TX, USA), urea (EIABUN, ThermoFisher), LDH (ab102526, Abcam, Cambridge, UK), and IL-6 (D6050, R&D Systems) were conducted using manufacturer’s instructions. For CYP3A4 activity, the P450 Glo 3A4 with Luciferin-IPA assay (V9001, Promega, Madison, WI, USA) was used; this is a live cell assay, and it was conducted according to the manufacturer’s instructions as follows. The Luciferin-IPA substrate was diluted 1:1000 in maintenance media and added to chips or wells 1 h prior to reading luminescence using a plate reader (SpectraMax iD3, Molecular Devices, San Jose, CA, USA). After the assay, the media was replaced.
(§3) The last series of experiments was conducted to examine whether a co-culture of PHHs and NPCs in the PhysioMimix LC12 could model immune-mediated effects. […] We examined two conditions of use: HU8373 PHH with either THP-1 cells or Kupffer cells (Figure 8). Treatments (25 or 100 μM trovafloxacin) were added on […] with or without LPS (1 μg/mL) (Figure 1H) to replicate a well-established model of immune-mediated hepatotoxicity. We examined LDH leakage as a marker of cytotoxicity, CYP3A4 activity, and IL-6 secretion into the media as a marker of pro-inflammatory response. […] Few effects on CYP3A4 were observed, albeit inter-experimental variability was high (Figure 8B).
Figure 8 Immune-mediated toxicity in the PhysioMimix LC12. Changes in LDH, CYP3A4, and IL-6 after 48 h trovafloxacin exposure with and without LPS in the PhysioMimix LC12 seeded with PHHs (donor HU8373) and non-parenchymal cells (THP-1 cells or Kupffer cells). (A) LDH leakage, (B) CYP3A4 activity, and (C) IL-6 release. Endpoints were normalized to the mean of the pretreatment samples (day 6 of the experiment). Data are plotted as box (interquartile range) and whiskers (min-max) with all individual values shown (n = 2–12). […] Brackets indicate statistical significance between groups at p < 0.05 by two-way ANOVA with Tukey’s multiple comparisons test.

For data set [2], the system named is PHHs (donor HU8373) + Kupffer cells. In words: Immune-mediated toxicity, trovafloxacin ± LPS in PhysioMimix LC12, PHH + Kupffer cells. The format is cell-based. The note with it: 48 h. The method, then:
as §1, §2, §3
Figure 8 Immune-mediated toxicity in the PhysioMimix LC12. […]

Data set [3] deals with PHH (TF-HU8373). In words: Midazolam metabolism (1′-OH MDZ formation) in PhysioMimix LC-12, PHH monoculture. The note with it: PhysioMimix LC12, HU8373 PHH, different cell combinations, 5 µM MDZ, 24 h.
Where [4] appears, read: 25 and 100 μM trovafloxacin + LPS (1 μg/mL).
Setting [5] is: 25 or 100 μM trovafloxacin with or without LPS (1 μg/mL).

Structures can show the parent of a compound that is named as a salt.

For `N[C@@H]1[C@H]2CN(c3nc4c(cc3F)c(=O)c(C(=O)O)cn4-c3ccc(F)cc3F)C[C@@H]12` [trovafloxacin, Trovafloxacin mesylate], the “IL-6 secretion into the media” value in data set [1] (100 μM trovafloxacin) and in data set [2] (100 μM trovafloxacin) was “Increases” each time. The figures for the “Potentiating effect of LPS on trovafloxacin (IL-6 release)” value in data set [1] (setting [4]) and in data set [2] (setting [4]) were “not THP-1 cells” and “significant potentiating effect”, respectively. For the same compound, the “Effect on CYP3A4 activity” value in data set [1] (setting [5]) and in data set [2] (setting [5]) was “Few effects” in each case. Further, the “LDH leakage as compared to pre-treatment levels” value in data set [1] (setting [5]) is “Significant increases”.

Turning to Lipopolysaccharide [LPS], the “IL-6 secretion into the media” value in data set [1] (LPS alone (1 μg/mL)) and in data set [2] (LPS alone (1 μg/mL)) was “Increases” each time.

Turning to `Cc1ncc2n1-c1ccc(Cl)cc1C(c1ccccc1F)=NC2` [midazolam, Midazolam], in data set [3], the “Midazolam metabolism over time in culture” value is on record as “remained consistent over time”.

The record behind these values is publication PMC10603899, “Reproducibility and Robustness of a Liver Microphysiological System PhysioMimix LC12 under Varying Culture Conditions and Cell Type Combinations” (Bioengineering, 2023).
